One data set in a line: ThT fluorescence assay. In kind it is physicochemical. To be noted: 16 × 10^−6 M N4, ThT 40 × 10^−6 M, deionized water, 20 min, 37 °C. Here is the method: The fluorescent dye was used for fluorescence measurements and imaging of N4. ^[ [48] ^] […] An equal volume of ThT solution was added to each well (final concentration: 40 × 10^−6 M), with ThT in deionized water serving as the control. After 20 min incubation at 37 °C, fluorescence intensity was measured using a microplate reader (excitation λ = 450 nm, emission λ = 480 nm). N4 was stained with 40 × 10^−6 M ThT for 30 min and observed by imaging using a fluorescence microscope.

The test system of data set [1] is clinically isolated strains. Description: MIC against clinically isolated strains (panel). In kind it is cell-based. To be noted: all four clinical strains of Figure 4G. The procedure: The MIC values of the nano‐short peptides were determined according to standard protocols.^[ [63] ^] Bacterial strains were revived from cryopreservation and cultured in Mueller–Hinton broth (MHB) to logarithmic growth phase, then diluted to a final density of 0.5–1 × 10⁶ CFU mL^−1. Serial dilutions of the nano‐short peptides were prepared in 0.2% bovine serum albumin (BSA) using a 96‐well plate format. Equal volumes of peptide solutions and bacterial suspensions were combined and incubated at 37 °C for 20–22 h. Bacterial growth was assessed by measuring absorbance at 492 nm, with MHB alone (negative control) and untreated bacterial suspension (positive control) included for reference.

The structures appear in SMILES notation.

`N=C(N)NCCC[C@H](NC(=O)[C@@H](CCCNC(=N)N)NC(=O)[C@H](Cc1cccc2ccccc12)NC(=O)[C@H](Cc1cccc2ccccc12)NC(=O)[C@H](Cc1cccc2ccccc12)NC(=O)[C@@H](N)Cc1cccc2ccccc12)C(=O)N[C@@H](CCCNC(=N)N)C(=O)N1CCC[C@H]1C(=O)O` (stereo in doubt) [Peptide N4]: the ThT fluorescence intensity entry in “ThT fluorescence assay” is recorded as “significant increase”. Further, in data set [1], the “MIC values against clinically isolated strains” value is not above 16 µM.

Values taken from paper PMC12677699, “Utilizing Proteolytic‐Resistant Nano‐Short Peptide Based on Naphthyl Tail‐Anchored to Combat Bacterial Infections” (Advanced Science, 2025).
